Article PMC6351562, “Structure, function, and inhibition of drug reactivating human gut microbial β-glucuronidases” (Scientific Reports, 2019)

Columns and labels:
[1] = system: GUS activity in faecal extracts; assay: pNPG processing assay in faecal extracts of DCF-treated mice; settings: single dose DCF 60 mg/kg intraperitoneal, faeces 12 hours after, 1 mM pNPG, pH 7.4
[2] = biological target: T1, Faecalibacterium prausnitzii GUS (FpGUS) (Faecalibacterium duncaniae, UniProt C7H4D2); settings: pNPG as substrate; optimal pH 6.0; 37 °C
T1 sequence (C7H4D2 1-608): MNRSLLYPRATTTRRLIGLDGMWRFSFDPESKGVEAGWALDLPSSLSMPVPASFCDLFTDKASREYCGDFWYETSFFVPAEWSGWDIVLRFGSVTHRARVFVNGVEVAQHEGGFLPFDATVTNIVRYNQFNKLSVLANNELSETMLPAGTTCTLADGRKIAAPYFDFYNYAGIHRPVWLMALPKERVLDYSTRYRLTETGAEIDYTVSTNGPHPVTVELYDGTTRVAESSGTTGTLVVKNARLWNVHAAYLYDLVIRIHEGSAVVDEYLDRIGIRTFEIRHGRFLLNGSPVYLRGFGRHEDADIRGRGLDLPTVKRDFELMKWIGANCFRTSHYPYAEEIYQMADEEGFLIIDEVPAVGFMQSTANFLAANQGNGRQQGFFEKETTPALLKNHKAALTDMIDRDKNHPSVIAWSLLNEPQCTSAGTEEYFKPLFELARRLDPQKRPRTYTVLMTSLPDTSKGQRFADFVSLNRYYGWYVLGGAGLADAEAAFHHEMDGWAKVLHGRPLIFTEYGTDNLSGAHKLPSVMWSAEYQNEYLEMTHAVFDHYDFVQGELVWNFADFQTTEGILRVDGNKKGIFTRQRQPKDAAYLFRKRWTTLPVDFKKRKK

BdGUS (−)CBM Loop mutant = assay: pNPG processing by BdGUS (−)CBM Loop mutant; settings: deletion of CBM loop of BdGUS; Fig. S13a
E. coli GUS (EcGUS) = E. coli GUS (EcGUS) (Escherichia coli, UniProt P05804); settings: pNPG as substrate; optimal pH 7.4; cited from earlier work
E. coli GUS (EcGUS), sequence (P05804 whole entry, the tested form may be a part): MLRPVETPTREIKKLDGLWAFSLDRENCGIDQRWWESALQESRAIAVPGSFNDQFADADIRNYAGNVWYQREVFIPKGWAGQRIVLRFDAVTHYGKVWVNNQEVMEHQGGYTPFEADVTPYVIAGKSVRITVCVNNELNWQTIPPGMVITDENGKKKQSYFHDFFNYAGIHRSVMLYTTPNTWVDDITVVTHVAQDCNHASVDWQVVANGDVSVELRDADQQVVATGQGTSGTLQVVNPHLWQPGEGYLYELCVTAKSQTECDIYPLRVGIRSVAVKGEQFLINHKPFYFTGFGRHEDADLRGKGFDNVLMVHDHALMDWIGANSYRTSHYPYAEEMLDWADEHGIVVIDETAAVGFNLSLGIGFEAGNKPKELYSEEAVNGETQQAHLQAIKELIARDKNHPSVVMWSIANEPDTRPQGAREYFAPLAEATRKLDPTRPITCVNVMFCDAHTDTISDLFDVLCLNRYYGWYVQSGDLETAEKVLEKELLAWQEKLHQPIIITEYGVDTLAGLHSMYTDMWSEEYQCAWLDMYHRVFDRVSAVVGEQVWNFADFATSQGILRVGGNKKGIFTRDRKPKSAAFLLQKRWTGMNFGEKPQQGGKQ

EeGUS (−)EeLoop mutant = assay: pNPG processing by EeGUS (−)EeLoop mutant; settings: deletion of residues M149 to A159 (Ee Extra Loop); Fig. S13c
[3] = biological target: Clostridium perfringens GUS (CpGUS) (Clostridium perfringens, UniProt Q8VNV4); settings: pH 6.5
[4] = biological target: T2, Ruminococcus gnavus GUS (RgGUS) (Mediterraneibacter gnavus, UniProt A0A2N5PVZ8); type: biochemical; settings: pNPG as substrate; optimal pH 6.5; apparent value estimated at low pNPG concentrations
T2 sequence (A0A2N5PVZ8 1-603): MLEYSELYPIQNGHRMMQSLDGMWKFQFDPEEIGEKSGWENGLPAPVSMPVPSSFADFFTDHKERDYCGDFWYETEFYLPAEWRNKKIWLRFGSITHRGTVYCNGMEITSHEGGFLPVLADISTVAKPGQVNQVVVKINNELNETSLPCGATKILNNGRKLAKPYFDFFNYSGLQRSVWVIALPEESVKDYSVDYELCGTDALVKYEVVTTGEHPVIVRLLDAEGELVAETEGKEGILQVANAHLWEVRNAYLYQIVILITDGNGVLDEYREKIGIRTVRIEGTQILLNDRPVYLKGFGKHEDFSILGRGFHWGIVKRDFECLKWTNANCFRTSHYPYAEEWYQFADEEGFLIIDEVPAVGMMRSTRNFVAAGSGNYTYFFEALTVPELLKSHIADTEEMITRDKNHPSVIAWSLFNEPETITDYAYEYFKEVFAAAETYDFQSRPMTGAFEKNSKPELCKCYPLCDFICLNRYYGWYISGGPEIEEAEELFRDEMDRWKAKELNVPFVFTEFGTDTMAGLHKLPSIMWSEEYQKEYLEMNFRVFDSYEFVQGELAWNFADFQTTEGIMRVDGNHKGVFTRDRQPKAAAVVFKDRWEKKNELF

[5] = biological target: T3, Lactobacillus rhamnosus GUS (LrGUS) (Lacticaseibacillus rhamnosus, UniProt A0A2A5L2J1); settings: pNPG as substrate; optimal pH 4.5; 37 °C
T3 sequence (A0A2A5L2J1 1-603): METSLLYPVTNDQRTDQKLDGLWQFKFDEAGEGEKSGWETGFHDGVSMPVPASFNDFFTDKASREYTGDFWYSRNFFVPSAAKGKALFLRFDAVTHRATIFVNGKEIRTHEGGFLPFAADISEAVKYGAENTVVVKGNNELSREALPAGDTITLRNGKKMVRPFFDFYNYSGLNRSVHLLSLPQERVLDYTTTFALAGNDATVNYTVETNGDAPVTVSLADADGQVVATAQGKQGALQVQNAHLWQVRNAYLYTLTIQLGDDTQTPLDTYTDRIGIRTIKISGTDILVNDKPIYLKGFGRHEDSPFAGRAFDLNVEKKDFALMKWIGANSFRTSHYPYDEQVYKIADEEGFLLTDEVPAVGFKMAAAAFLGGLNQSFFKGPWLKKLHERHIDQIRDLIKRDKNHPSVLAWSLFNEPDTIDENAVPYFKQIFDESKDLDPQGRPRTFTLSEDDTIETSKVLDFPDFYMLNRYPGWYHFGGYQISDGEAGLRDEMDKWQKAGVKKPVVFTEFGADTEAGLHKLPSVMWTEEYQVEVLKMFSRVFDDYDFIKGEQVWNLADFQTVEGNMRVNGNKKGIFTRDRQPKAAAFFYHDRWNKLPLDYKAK

For O=C(O)Cc1ccccc1Nc1c(Cl)cccc1Cl [DCF, diclofenac], the “GUS activity (pNPG processing) in faecal extracts compared to pre-treatment levels” value [1] was “increases GUS activity”.

For O=C(O)[C@H]1O[C@@H](Oc2ccc([N+](=O)[O-])cc2)[C@H](O)[C@@H](O)[C@@H]1O [pNPG, p-nitrophenol-β-D-glucuronide], the “kcat” value [2] is listed as 58 s⁻¹, the “activity of mutant with pNPG (in words)” value (BdGUS (−)CBM Loop mutant) is listed as “inactive” and the Km (E. coli GUS (EcGUS)) is listed as 130 ± 10 µM. The “kcat (s^−1)” value (E. coli GUS (EcGUS)) was 120 ± 10^a s^−1, the “pNPG cleavage rate of mutant relative to WT” value (EeGUS (−)EeLoop mutant) was 9% and the “kcat” value [3] was 57 s⁻¹. The “kcat” value [4] was 2.8 s⁻¹ and the “kcat” value [5] was 10.0 s⁻¹.
